Measured values reported in US20190185865A1, “USE OF PROKARYOTIC TRANSCRIPTIONAL ACTIVATORS AS METABOLITE BIOSENSORS IN EUKARYOTIC CELLS” (Danmarks Tekniske Universitet, priority 2016, published 2019).

Target: T1, BenM (Acinetobacter baylyi, UniProt O68014)
T1 construct: expressed in transfected cells; host or cells: Saccharomyces cerevisiae CEN.PK113-5A, chromosomal integration; promoters TDH3p, TEF1p, RNR2p or REV1p
Assay: CCM-induced GFP expression in yeast strains combining BenM expression cassettes and CYC1p reporter promoter variants (flow cytometry)
Format: cell-based, Saccharomyces cerevisiae
Conditions: for FC (+/−CCM): 1.4 mM CCM
From the text: Strains, chemicals and media. Saccharomyces cerevisiae CEN.PK102-5B (MATa ura3-52 his3Δ1 leu2-3/112 MAL2-8^c SUC2), CEN.PK113-5A (MATa, trp1 his3Δ1 leu2-3/112 MAL2-8^c SUC2) and CEN.PK113-7D (wild type, MATa MAL2-8^c SUC2) strains were obtained from Peter Kotter (Johann Wolfgang Goethe-University Frankfurt, Germany). In principal any other yeast strains may be used, such as one obtained from public repository EuroScarf. EasyClone plasmids used in this work are described in Jensen, N. B. et al. EasyClone: method for iterative chromosomal integration of multiple genes in Saccharomyces cerevisiae. FEMS Yeast Res. 14, 238-48 (2014). Escherichia coli strain DH5a was used as a host for cloning and plasmid propagation. The chemicals and Pfu TURBO DNA polymerase were commercially obtained (Sigma-Aldrich and Agilent Technologies Inc., respectively). All acids used were >97% in purity. S. cerevisiae cells were grown at 30° C. in synthetic complete medium as well as drop-out media and agar plates were prepared using pre-mixed drop-out powders (Sigma-Aldrich). Mineral medium was freshly prepared as described previously. For all media containing diacids, 1.4 mM of the individual diacids were dissolved in mineral medium and pH adjusted to 4.5 before sterile filtration. For CCM several dilutions were made to examine the performance of the CCM biosensor. For naringenin, mineral medium was supplemented with 0, 0.05, 0.10 or 0.20 mM naringenin, dissolved in ethanol, the final ethanol concentration for each medium was 2% (v/v), and the final pH of the medium was adjusted to 6.0. E. coli cells were grown at 37° C. in Luria-Bertani (LB) medium supplemented with 100 μg/mL ampicillin.
Events were analyzed using FlowJo software (TreeStar Inc.).

T1 sequence (O68014 whole entry): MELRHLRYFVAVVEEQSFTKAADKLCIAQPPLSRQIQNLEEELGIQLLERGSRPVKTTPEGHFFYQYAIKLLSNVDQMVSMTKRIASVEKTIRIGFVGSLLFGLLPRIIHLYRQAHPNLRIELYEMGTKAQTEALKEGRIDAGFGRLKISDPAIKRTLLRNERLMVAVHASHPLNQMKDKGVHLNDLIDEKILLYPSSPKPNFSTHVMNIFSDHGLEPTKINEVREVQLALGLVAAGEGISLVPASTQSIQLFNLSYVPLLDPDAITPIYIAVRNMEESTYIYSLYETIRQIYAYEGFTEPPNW

O=C(O)/C=C\C=C/C(=O)O [CCM, cis, cis-muconic acid]
maximum induction of GFP output (chromosomally integrated BenM, 1.4 mM (200 mg/L) CCM, 24 h): 3.5 fold
increase in reporter output from all CYC1 promoters that harbored BenO (full-length CYC1p with BenO (T1, T2, T1/T2), BenM from TEF1p, 200 mg/L CCM, pH 4.5, 24 h): 1.3-2.2 fold
highest dynamic range (CCM-inducibility) (minimal promoters 249 bp_CYC1p_BenO_T1 and 209 bp_CYC1p_BenO_T1): 3.2-4.7 fold
change in reporter output from native CYC1p (native CYC1p, 200 mg/L CCM, pH 4.5, 24 h): no change
Mean fluorescense intensities of GFP (24 h), CCM (1.4 mM) (strain MeLS0020, TEF1p-BenM + 491bp_CYC1p_BenO_T2:GFP): 813
FC (+/−CCM) (strain MeLS0020, TEF1p-BenM + 491bp_CYC1p_BenO_T2:GFP, 24 h): 2.224
Mean fluorescense intensities of GFP (24 h), CCM (1.4 mM) (strain MeLS0021, TEF1p-BenM + 491bp_CYC1p_BenO_T1/T2:GFP): 2967
FC (+/−CCM) (strain MeLS0021, TEF1p-BenM + 491bp_CYC1p_BenO_T1/T2:GFP, 24 h): 2.184
Mean fluorescense intensities of GFP (24 h), CCM (1.4 mM) (strain MeLS0025, TEF1p-BenM + 209bp_CYC1p_BenO_T1:GFP): 4139
FC (+/−CCM) (strain MeLS0025, TEF1p-BenM + 209bp_CYC1p_BenO_T1:GFP, 24 h): 3.494
Mean fluorescense intensities of GFP (24 h), CCM (1.4 mM) (strain MeLS0026, TEF1p-BenM + 209bp_CYC1p_BenO_T2:GFP): 406
FC (+/−CCM) (strain MeLS0026, TEF1p-BenM + 209bp_CYC1p_BenO_T2:GFP, 24 h): 1.068
Mean fluorescense intensities of GFP (24 h), CCM (1.4 mM) (strain MeLS0027, TEF1p-BenM + 209bp_CYC1p_BenO_T1/T2:GFP): 1879
FC (+/−CCM) (strain MeLS0027, TEF1p-BenM + 209bp_CYC1p_BenO_T1/T2:GFP, 24 h): 3.394
Mean fluorescense intensities of GFP (24 h), CCM (1.4 mM) (strain MeLS0044, REV1p-BenM + 491bp_CYC1p_BenO_T2:GFP): 667
FC (+/−CCM) (strain MeLS0044, REV1p-BenM + 491bp_CYC1p_BenO_T2:GFP, 24 h): 1.524
Mean fluorescense intensities of GFP (24 h), CCM (1.4 mM) (strain MeLS0045, REV1p-BenM + 491bp_CYC1p_BenO_T1/T2:GFP): 1698
FC (+/−CCM) (strain MeLS0045, REV1p-BenM + 491bp_CYC1p_BenO_T1/T2:GFP, 24 h): 1.418
CCM-inducibility (strain MeLS0049, 209 bp_CYC1p_BenO_T1, BenM from REV1p): 3.8 fold
Mean fluorescense intensities of GFP (24 h), CCM (1.4 mM) (strain MeLS0049, REV1p-BenM + 209bp_CYC1p_BenO_T1:GFP): 880
FC (+/−CCM) (strain MeLS0049, REV1p-BenM + 209bp_CYC1p_BenO_T1:GFP, 24 h): 3.81
Mean fluorescense intensities of GFP (24 h), CCM (1.4 mM) (strain MeLS0050, REV1p-BenM + 209bp_CYC1p_BenO_T2:GFP): 182
FC (+/−CCM) (strain MeLS0050, REV1p-BenM + 209bp_CYC1p_BenO_T2:GFP, 24 h): 1.166
Mean fluorescense intensities of GFP (24 h), CCM (1.4 mM) (strain MeLS0051, REV1p-BenM + 209bp_CYC1p_BenO_T1/T2:GFP): 307
FC (+/−CCM) (strain MeLS0051, REV1p-BenM + 209bp_CYC1p_BenO_T1/T2:GFP, 24 h): 1.569
Mean fluorescense intensities of GFP (24 h), CCM (1.4 mM) (strain MeLS0070, RNR2p-BenM + 209bp_CYC1p_BenO_T1/T2:GFP): 356
FC (+/−CCM) (strain MeLS0070, RNR2p-BenM + 209bp_CYC1p_BenO_T1/T2:GFP, 24 h): 1.775
Mean fluorescense intensities of GFP (24 h), CCM (1.4 mM) (strain MeLS0079, TEF1p-BenM): 185
FC (+/−CCM) (strain MeLS0079, TEF1p-BenM, 24 h): 1.071
Mean fluorescense intensities of GFP (24 h), CCM (1.4 mM) (strain MeLS0081, REV1p-BenM): 175
FC (+/−CCM) (strain MeLS0081, REV1p-BenM, 24 h): 1.105
Mean fluorescense intensities of GFP (24 h), CCM (1.4 mM) (strain MeLS0139, REV1p-BenM + 491bp_CYC1p:GFP): 2231
FC (+/−CCM) (strain MeLS0139, REV1p-BenM + 491bp_CYC1p:GFP, 24 h): 0.9828
Mean fluorescense intensities of GFP (24 h), CCM (1.4 mM) (strain MeLS0140, REV1p-BenM + 272bp_CYC1p:GFP): 183
FC (+/−CCM) (strain MeLS0140, REV1p-BenM + 272bp_CYC1p:GFP, 24 h): 1.105
Mean fluorescense intensities of GFP (24 h), CCM (1.4 mM) (strain MeLS0141, REV1p-BenM + 249bp_CYC1p:GFP): 176
FC (+/−CCM) (strain MeLS0141, REV1p-BenM + 249bp_CYC1p:GFP, 24 h): 1.056
Mean fluorescense intensities of GFP (24 h), CCM (1.4 mM) (strain MeLS0142, REV1p-BenM + 209bp_CYC1p:GFP): 174
FC (+/−CCM) (strain MeLS0142, REV1p-BenM + 209bp_CYC1p:GFP, 24 h): 1.09
Mean fluorescense intensities of GFP (24 h), CCM (1.4 mM) (strain MeLS0143, REV1p-BenM + 491bp_CYC1p_BenO_T1:GFP): 5789
FC (+/−CCM) (strain MeLS0143, REV1p-BenM + 491bp_CYC1p_BenO_T1:GFP, 24 h): 1.088
Mean fluorescense intensities of GFP (24 h), CCM (1.4 mM) (strain MeLS0144, REV1p-BenM + 272bp_CYC1p_BenO_T1:GFP): 804
FC (+/−CCM) (strain MeLS0144, REV1p-BenM + 272bp_CYC1p_BenO_T1:GFP, 24 h): 2.381
Mean fluorescense intensities of GFP (24 h), CCM (1.4 mM) (strain MeLS0145, REV1p-BenM + 249bp_CYC1p_BenO_T1:GFP): 405
FC (+/−CCM) (strain MeLS0145, REV1p-BenM + 249bp_CYC1p_BenO_T1:GFP, 24 h): 1.953
Mean fluorescense intensities of GFP (24 h), CCM (1.4 mM) (strain MeLS0147, TDH3p-BenM + 272bp_CYC1p_BenO_T1:GFP): 4984
FC (+/−CCM) (strain MeLS0147, TDH3p-BenM + 272bp_CYC1p_BenO_T1:GFP, 24 h): 3.738
Mean fluorescense intensities of GFP (24 h), CCM (1.4 mM) (strain MeLS0148, TEF1p-BenM + 272bp_CYC1p_BenO_T1:GFP): 4032
FC (+/−CCM) (strain MeLS0148, TEF1p-BenM + 272bp_CYC1p_BenO_T1:GFP, 24 h): 3.463
Mean fluorescense intensities of GFP (24 h), CCM (1.4 mM) (strain MeLS0149, RNR2p-BenM + 272bp_CYC1p_BenO_T1:GFP): 854
FC (+/−CCM) (strain MeLS0149, RNR2p-BenM + 272bp_CYC1p_BenO_T1:GFP, 24 h): 2.313
Mean fluorescense intensities of GFP (24 h), CCM (1.4 mM) (strain MeLS0150, TDH3p-BenM + 209bp_CYC1p_BenO_T1:GFP): 4868
FC (+/−CCM) (strain MeLS0150, TDH3p-BenM + 209bp_CYC1p_BenO_T1:GFP, 24 h): 4.082
Mean fluorescense intensities of GFP (24 h), CCM (1.4 mM) (strain MeLS0151, RNR2p-BenM + 209bp_CYC1p_BenO_T1:GFP): 859
FC (+/−CCM) (strain MeLS0151, RNR2p-BenM + 209bp_CYC1p_BenO_T1:GFP, 24 h): 3.735
Mean fluorescense intensities of GFP (24 h), CCM (1.4 mM) (strain MeLS0152, TDH3p-BenM): 184
FC (+/−CCM) (strain MeLS0152, TDH3p-BenM, 24 h): 1.08
Mean fluorescense intensities of GFP (24 h), CCM (1.4 mM) (strain MeLS0153, RNR2p-BenM): 174
FC (+/−CCM) (strain MeLS0153, RNR2p-BenM, 24 h): 1.13
Mean fluorescense intensities of GFP (24 h), CCM (1.4 mM) (strain MeLS0156, TEF1p-BenM + 491bp_CYC1p:GFP): 3016
FC (+/−CCM) (strain MeLS0156, TEF1p-BenM + 491bp_CYC1p:GFP, 24 h): 0.9902
Mean fluorescense intensities of GFP (24 h), CCM (1.4 mM) (strain MeLS0157, TEF1p-BenM + 272bp_CYC1p:GFP): 198
FC (+/−CCM) (strain MeLS0157, TEF1p-BenM + 272bp_CYC1p:GFP, 24 h): 1.13
Mean fluorescense intensities of GFP (24 h), CCM (1.4 mM) (strain MeLS0158, TEF1p-BenM + 249bp_CYC1p:GFP): 175
FC (+/−CCM) (strain MeLS0158, TEF1p-BenM + 249bp_CYC1p:GFP, 24 h): 1.117
Mean fluorescense intensities of GFP (24 h), CCM (1.4 mM) (strain MeLS0159, TEF1p-BenM + 209bp_CYC1p:GFP): 177
FC (+/−CCM) (strain MeLS0159, TEF1p-BenM + 209bp_CYC1p:GFP, 24 h): 1.132
Mean fluorescense intensities of GFP (24 h), CCM (1.4 mM) (strain MeLS0160, RNR2p-BenM + 491bp_2YC1p:GFP): 2811
FC (+/−CCM) (strain MeLS0160, RNR2p-BenM + 491bp_2YC1p:GFP, 24 h): 1.071
Mean fluorescense intensities of GFP (24 h), CCM (1.4 mM) (strain MeLS0161, RNR2p-BenM + 272bp_CYC1p:GFP): 180
FC (+/−CCM) (strain MeLS0161, RNR2p-BenM + 272bp_CYC1p:GFP, 24 h): 1.049
